Results: ChEMBL document CHEMBL1201862, “PubChem BioAssay data set” (2004)
Calls of active or inactive are those of the source.

Legend:
[1] = target: sn-1-specific diacylglycerol lipase ABHD11 (Mus musculus, UniProt Q8K4F5); assay: Late stage assay provider results from the probe development effort to identify inhibitors of LYPLA1: fluorescence-based cell-based gel-based Activity-Based Protein Profiling (ABPP) IC50 for anti-target ABHD11. [Related pubchem assays (depositor defined):AID2174, AID2177, AID2202, AID2203, AID2232, AID2233, AID493105, AID493108, AID493109, AID493110, AID493111, AID493154, AID493161, AID504892]; format: functional
Hexokinase-1 = Hexokinase-1 (Homo sapiens, UniProt P19367); assay: HK1 enzyme inhibition by HKDC1 hits, SAR follow-up, selectivity assay for HKDC1 inhibitor project, biochemical, set 2, resazurin fluorescence coupled readout (AID 588356); format: functional
Hexokinase HKDC1 = target: T1, Hexokinase HKDC1 (Homo sapiens, UniProt Q2TB90); assay: HKDC1 hexokinase inhibitors, SAR follow-up, biochemical, set 2 (AID 588355); format: functional
T1 sequence (Q2TB90 whole entry): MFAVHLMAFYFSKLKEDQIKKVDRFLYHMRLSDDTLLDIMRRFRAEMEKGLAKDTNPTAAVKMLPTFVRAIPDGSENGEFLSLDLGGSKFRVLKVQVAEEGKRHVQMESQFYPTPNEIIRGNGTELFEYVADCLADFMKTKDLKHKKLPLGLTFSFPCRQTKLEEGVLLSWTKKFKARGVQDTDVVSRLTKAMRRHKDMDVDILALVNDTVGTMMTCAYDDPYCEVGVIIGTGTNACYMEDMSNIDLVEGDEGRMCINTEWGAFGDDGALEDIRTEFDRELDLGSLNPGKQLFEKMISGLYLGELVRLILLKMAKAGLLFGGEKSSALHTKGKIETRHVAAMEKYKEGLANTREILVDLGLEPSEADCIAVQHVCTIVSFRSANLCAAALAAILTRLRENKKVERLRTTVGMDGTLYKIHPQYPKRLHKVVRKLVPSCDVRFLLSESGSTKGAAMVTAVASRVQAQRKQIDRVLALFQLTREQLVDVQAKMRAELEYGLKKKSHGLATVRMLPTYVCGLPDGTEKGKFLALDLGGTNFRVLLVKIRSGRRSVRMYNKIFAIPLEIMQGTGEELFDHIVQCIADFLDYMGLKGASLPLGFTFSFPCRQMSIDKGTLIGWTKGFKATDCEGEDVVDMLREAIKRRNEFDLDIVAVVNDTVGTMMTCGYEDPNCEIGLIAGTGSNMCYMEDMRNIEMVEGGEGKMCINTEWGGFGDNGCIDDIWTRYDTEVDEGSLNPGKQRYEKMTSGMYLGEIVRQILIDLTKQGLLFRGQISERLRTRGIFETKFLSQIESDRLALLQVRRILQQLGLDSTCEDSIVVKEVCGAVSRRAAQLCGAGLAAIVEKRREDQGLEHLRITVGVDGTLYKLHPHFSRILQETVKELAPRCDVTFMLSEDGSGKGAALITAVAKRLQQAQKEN

Phospholipase D1 = Phospholipase D1 (Homo sapiens, UniProt Q13393); assay: PLD1 inhibitor potency in cells, dose response (AID 602151); format: functional;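 further: cellular PLD1 assay in Calu-1 cells stimulated with PMA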
Phospholipase D2 = Phospholipase D2 (Homo sapiens, UniProt O14939); assay: PLD2 inhibitor potency in cells, dose response (AID 602147); format: functional;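 further: cellular assay in HEK293 cells overexpressing GFP-tagged PLD2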
Beta-galactosidase = Beta-galactosidase (Escherichia coli, UniProt Q8VNN2); assay: PubChem AID 485352; format: functional
[2] = target: Type-1 angiotensin II receptor (Homo sapiens, UniProt P30556); assay: AT1 receptor antagonists, dose response, selectivity assay for APJ receptor antagonist project, cell-based, uHTS hits (AID 463214); format: functional;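 further: antagonist potency against angiotensin II stimulated AT1 response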
[3] = target: Mitochondrial peptide methionine sulfoxide reductase (Bos taurus, UniProt P54149); assay: Absorbance-based biochemical high throughput dose response assay for activators of Methionine sulfoxide reductase A (MsrA).; format: functional
[4] = target: T2, Ubiquitin-conjugating enzyme E2 N (Homo sapiens, UniProt P61088); format: functional;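 further: Dose-response confirmation in a TR-FRET assay detecting UBC13-driven polyubiquitin chain formation, inhibition measured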
T2 sequence (P61088 whole entry): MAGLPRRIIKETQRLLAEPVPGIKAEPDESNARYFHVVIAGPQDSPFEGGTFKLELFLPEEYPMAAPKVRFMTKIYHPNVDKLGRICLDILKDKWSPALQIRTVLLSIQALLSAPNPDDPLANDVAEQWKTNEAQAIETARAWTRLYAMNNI

Cytochrome P450 2C19 = Cytochrome P450 2C19 (Homo sapiens, UniProt P33261); assay: Cytochrome panel assay with activity outcomes. Panel member name: p450-cyp2c19 Compounds with AC50 equal or less than 10 uM are considered active; format: functional
Cytochrome P450 1A2 = target: T3, Cytochrome P450 1A2 (Homo sapiens, UniProt P05177);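 further: PubChem cytochrome P450 panel assay, CYP1A2 panel member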
T3 sequence (P05177 whole entry): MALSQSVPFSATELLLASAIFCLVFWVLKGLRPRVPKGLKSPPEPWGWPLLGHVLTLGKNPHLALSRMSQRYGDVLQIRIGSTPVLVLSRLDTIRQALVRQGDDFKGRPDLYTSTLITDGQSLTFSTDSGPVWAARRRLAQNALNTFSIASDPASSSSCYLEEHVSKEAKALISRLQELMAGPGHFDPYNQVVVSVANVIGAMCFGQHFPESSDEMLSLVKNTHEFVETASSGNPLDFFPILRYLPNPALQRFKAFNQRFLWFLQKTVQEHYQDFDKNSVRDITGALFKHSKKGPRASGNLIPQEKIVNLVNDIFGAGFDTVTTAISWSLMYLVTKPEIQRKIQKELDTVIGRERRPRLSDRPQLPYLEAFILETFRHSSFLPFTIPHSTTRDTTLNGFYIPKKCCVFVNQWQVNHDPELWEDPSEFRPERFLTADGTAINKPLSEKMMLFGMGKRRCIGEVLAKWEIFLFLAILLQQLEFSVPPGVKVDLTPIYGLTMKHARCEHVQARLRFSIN

Cytochrome P450 2C9 = Cytochrome P450 2C9 (Homo sapiens, UniProt P11712)
[5] = target: Intestinal-type alkaline phosphatase (Mus musculus, UniProt P24822); assay: PubChem AID 488874; format: functional
[6] = target: T4, Intestinal-type alkaline phosphatase (Homo sapiens, UniProt P09923); assay: human IAP inhibitors, dose response, biochemical, luminescent, uHTS hits, set 2 (AID 488793); format: functional
[7] = target: T4, Intestinal-type alkaline phosphatase; assay: Dose Response confirmation of uHTS hits from a small molecule inhibitors of human intestinal alkaline phosphatase via a luminescent assay. [Related pubchem assays (depositor defined):AID2544, AID2574]; format: functional
[8] = target: T5, Alkaline phosphatase, tissue-nonspecific isozyme (Homo sapiens, UniProt P05186); assay: inhibition of tissue-nonspecific alkaline phosphatase – biochemical, dose response (AID 488882); format: functional
T5 sequence (P05186 whole entry): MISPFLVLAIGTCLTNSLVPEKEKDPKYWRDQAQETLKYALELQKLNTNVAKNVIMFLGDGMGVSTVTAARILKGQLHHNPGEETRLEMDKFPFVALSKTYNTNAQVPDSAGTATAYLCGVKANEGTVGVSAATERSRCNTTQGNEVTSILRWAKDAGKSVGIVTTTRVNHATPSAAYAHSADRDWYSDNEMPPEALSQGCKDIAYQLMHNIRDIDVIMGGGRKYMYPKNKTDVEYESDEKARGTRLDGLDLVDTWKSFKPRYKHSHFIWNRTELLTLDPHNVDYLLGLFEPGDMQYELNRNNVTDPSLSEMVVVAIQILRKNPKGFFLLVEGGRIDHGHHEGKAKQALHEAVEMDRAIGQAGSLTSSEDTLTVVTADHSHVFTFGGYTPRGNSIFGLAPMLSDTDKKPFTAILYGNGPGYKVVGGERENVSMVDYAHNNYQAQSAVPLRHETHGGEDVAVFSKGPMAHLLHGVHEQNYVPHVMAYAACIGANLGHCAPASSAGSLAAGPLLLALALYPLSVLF

HEK293 = assay: cells; format: functional, cell-based; conditions: Homo sapiens
[9] = target: Nuclear receptor subfamily 0 group B member 1 (Homo sapiens, UniProt P51843); assay: Luminescence-based cell-based high throughput dose response assay for inhibitors of the orphan nuclear receptor subfamily 0, group B, member 1 (DAX1; NR0B1). [Related pubchem assays (depositor defined):AID504766, AID504790]; format: functional
[10] = HeLa cell cytotoxicity, dose response, cytotoxicity control for MgcRacGAP inhibitor project (AID 624300); format: functional
[11] = target: T6, Rac GTPase-activating protein 1 (Homo sapiens, UniProt Q9H0H5); assay: MgcRacGAP GTPase-activating activity inhibitors, confirmation, biochemical, ADP Hunter fluorescence, primary and confirmatory (AID 624330); format: functional
T6 sequence (Q9H0H5 whole entry): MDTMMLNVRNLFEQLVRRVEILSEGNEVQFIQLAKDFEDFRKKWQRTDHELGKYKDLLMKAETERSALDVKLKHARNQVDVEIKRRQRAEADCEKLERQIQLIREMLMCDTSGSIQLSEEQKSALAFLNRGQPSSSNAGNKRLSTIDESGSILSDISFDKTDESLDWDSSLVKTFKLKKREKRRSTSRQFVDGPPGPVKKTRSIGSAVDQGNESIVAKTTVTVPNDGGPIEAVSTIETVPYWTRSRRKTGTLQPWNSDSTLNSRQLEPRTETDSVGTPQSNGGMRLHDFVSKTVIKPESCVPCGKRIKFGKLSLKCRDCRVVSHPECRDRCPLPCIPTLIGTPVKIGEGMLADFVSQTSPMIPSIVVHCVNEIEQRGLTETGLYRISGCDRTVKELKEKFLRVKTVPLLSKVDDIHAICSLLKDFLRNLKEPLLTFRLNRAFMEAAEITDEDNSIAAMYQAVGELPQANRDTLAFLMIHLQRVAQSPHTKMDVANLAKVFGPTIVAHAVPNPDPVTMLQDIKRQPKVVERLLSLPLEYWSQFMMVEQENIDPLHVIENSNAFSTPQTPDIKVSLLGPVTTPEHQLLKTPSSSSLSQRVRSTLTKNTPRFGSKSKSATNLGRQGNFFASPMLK

T4 sequence (P09923 whole entry): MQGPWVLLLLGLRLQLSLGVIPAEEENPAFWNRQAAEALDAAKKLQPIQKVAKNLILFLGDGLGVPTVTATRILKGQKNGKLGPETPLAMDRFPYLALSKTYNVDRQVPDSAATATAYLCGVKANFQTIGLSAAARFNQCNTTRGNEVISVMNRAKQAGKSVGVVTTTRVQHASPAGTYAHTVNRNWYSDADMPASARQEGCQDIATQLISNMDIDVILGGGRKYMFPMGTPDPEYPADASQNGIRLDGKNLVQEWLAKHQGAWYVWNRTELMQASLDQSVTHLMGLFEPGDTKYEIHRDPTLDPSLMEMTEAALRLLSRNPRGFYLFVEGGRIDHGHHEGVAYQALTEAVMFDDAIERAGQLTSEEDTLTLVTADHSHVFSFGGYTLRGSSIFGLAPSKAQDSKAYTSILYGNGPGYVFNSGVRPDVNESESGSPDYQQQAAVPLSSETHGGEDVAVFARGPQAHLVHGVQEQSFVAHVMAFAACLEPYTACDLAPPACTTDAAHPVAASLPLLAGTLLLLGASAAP
Sequence of Intestinal-type alkaline phosphatase (Mus musculus, UniProt P24822) (P24822 whole entry): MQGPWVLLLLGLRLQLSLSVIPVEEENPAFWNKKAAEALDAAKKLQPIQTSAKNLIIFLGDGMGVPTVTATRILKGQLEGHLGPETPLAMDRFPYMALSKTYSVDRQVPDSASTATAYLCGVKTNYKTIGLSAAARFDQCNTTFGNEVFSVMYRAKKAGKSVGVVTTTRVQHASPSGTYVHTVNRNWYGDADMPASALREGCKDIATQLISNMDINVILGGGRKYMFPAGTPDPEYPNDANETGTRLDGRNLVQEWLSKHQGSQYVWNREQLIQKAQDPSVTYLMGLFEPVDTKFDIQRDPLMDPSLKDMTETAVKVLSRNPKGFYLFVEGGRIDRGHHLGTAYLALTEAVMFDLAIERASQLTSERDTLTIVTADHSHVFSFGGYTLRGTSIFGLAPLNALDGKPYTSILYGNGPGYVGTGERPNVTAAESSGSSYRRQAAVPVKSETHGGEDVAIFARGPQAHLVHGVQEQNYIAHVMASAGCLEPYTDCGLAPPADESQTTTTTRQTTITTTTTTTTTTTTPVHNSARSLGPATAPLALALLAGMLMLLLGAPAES
Sequence of Phospholipase D2 (O14939 whole entry): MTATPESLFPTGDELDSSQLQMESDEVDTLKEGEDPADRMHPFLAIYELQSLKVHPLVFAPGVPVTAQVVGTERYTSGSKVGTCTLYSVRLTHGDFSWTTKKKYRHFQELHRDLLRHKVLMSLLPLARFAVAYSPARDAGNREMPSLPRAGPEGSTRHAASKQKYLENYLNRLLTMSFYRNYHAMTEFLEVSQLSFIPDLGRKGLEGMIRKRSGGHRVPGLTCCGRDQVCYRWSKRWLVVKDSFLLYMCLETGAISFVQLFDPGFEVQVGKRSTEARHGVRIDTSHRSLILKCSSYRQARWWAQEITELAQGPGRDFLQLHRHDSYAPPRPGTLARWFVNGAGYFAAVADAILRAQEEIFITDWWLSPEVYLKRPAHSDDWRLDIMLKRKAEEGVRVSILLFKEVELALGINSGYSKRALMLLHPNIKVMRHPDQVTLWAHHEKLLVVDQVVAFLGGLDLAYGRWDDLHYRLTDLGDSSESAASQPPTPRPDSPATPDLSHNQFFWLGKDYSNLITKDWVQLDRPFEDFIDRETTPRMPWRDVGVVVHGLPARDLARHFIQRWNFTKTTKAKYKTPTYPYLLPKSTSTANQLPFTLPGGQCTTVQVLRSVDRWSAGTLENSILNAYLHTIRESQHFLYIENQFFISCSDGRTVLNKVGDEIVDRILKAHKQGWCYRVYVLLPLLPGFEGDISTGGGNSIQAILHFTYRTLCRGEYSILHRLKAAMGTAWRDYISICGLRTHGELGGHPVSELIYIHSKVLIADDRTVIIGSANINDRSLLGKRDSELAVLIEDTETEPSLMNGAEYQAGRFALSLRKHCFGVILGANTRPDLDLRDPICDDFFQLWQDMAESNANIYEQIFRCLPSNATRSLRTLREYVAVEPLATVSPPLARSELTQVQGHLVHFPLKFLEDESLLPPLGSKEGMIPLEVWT
Sequence of Hexokinase-1 (P19367 whole entry): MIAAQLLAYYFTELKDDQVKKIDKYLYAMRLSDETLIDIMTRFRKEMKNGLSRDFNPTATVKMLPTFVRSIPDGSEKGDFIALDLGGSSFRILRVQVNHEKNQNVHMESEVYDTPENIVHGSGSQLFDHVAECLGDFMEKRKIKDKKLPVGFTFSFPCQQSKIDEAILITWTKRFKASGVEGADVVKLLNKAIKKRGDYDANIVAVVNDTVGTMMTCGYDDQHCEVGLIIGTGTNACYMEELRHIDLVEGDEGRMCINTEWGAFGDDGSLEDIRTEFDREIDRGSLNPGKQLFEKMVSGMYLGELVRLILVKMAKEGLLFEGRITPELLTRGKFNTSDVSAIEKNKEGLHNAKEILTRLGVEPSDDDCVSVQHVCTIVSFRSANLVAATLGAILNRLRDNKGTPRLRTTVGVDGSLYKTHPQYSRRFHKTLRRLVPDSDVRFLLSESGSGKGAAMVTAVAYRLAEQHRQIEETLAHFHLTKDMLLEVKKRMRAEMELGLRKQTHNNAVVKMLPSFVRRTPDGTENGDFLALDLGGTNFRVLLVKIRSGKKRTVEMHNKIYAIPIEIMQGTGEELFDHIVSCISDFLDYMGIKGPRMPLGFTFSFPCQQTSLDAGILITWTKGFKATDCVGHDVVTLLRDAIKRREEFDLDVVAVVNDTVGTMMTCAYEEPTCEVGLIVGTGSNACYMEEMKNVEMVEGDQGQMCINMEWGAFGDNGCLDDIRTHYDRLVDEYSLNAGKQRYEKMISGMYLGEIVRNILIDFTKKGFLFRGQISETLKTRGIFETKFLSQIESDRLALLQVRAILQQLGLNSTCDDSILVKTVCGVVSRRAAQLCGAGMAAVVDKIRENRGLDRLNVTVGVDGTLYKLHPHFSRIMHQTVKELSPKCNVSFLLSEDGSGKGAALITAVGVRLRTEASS
Sequence of Cytochrome P450 2C19 (P33261 whole entry): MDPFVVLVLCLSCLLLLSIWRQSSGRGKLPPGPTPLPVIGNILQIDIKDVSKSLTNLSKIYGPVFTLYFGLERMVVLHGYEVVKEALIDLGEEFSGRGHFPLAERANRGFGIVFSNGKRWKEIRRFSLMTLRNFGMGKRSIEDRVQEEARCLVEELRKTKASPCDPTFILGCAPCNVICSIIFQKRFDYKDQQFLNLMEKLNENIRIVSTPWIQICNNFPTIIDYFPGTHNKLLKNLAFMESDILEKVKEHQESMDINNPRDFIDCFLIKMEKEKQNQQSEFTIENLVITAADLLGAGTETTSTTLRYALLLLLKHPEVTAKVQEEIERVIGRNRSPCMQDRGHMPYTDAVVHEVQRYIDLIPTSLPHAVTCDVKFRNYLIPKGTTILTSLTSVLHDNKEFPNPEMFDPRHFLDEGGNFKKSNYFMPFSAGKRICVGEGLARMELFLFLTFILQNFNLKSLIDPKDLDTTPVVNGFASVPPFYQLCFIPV
Sequence of Type-1 angiotensin II receptor (P30556 whole entry): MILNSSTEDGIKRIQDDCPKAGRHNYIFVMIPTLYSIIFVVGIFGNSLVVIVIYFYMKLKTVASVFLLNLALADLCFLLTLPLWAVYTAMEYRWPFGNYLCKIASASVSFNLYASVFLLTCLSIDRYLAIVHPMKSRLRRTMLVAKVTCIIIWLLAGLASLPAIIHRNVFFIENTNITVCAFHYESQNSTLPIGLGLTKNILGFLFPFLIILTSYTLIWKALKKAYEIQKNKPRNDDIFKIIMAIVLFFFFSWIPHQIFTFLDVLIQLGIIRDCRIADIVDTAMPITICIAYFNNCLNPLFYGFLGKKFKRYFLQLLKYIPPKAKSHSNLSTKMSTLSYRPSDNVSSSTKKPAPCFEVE
Sequence of Nuclear receptor subfamily 0 group B member 1 (P51843 whole entry): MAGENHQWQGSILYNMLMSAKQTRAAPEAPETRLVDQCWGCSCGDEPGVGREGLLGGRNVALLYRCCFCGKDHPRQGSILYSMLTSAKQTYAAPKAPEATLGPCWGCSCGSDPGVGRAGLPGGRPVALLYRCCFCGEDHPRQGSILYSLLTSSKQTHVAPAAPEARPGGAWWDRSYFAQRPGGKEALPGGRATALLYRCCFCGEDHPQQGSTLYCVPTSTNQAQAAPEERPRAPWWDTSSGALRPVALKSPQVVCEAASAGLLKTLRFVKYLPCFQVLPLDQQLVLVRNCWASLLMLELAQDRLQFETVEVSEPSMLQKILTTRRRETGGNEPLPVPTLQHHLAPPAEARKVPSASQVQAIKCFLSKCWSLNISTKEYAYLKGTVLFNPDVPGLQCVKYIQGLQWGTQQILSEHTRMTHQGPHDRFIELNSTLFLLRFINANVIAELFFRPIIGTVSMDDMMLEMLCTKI
Sequence of sn-1-specific diacylglycerol lipase ABHD11 (Q8K4F5 whole entry): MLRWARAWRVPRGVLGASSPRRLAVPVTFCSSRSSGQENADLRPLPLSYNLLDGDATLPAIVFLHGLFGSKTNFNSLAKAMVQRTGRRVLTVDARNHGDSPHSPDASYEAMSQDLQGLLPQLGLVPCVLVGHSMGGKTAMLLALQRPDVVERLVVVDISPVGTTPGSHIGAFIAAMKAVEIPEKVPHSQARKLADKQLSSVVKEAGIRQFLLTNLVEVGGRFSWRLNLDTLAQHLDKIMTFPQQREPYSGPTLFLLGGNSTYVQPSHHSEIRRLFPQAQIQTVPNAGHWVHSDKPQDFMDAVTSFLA
Sequence of Mitochondrial peptide methionine sulfoxide reductase (P54149 whole entry): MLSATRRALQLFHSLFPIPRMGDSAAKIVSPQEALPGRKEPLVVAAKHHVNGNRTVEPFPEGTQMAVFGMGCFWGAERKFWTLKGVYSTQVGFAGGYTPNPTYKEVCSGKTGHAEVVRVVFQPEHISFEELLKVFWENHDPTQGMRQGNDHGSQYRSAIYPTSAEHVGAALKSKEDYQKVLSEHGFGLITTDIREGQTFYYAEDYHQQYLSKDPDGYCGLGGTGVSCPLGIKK

SMILES: COCC1CCCCN1C(=O)n1ncc(C(O)(c2ccccc2)c2ccccc2)n1 (stereo not given)
- IC50 [1]: 0.000137 µM (active)

SMILES: COc1ccc2c(c1)C(NC(C)=O)C(=O)N2Cc1ccccc1 (stereo not given)
- IC50 (Hexokinase-1): > 80 µM (inactive)
- IC50 (Hexokinase HKDC1): > 80 µM (inactive)

SMILES: C[C@@H](CN1CCC2(CC1)C(=O)NCN2c1ccc(F)c(F)c1)NC(=O)c1ccc(F)cc1
- IC50 (Phospholipase D1): 0.104 µM (active)
- IC50 (Phospholipase D2): 0.26 µM (active)

SMILES: O=C1c2ccccc2-c2nnc(-c3ccccc3)cc21
- EC50 (Beta-galactosidase): > 40 µM (inactive)
- IC50 [2]: 7.43 µM (active)
- EC50 [3]: > 104 µM (inactive)

SMILES: COc1cc(N)c(Cl)cc1C(=O)N[C@H]1CCN(CCCOc2ccc(F)cc2)C[C@H]1OC [REL-CISAPRIDE]
- IC50 [4]: > 20 µM (inactive)
- AC50 (Cytochrome P450 2C19): inactive
- AC50 (Cytochrome P450 1A2): inactive
- AC50 (Cytochrome P450 2C9): inconclusive

SMILES: O=c1oc(-c2ccc(O)c(O)c2)cc2cc(O)cc(O)c12 [THUNBERGINOL B]
- IC50 [5]: 7.57 µM (active)
- IC50 [6]: 0.565 µM (active)
- IC50 [7]: 2.17 µM (active)
- IC50 [8]: 19.5 µM (active)
- IC50 (HEK293): > 67.5 µM (inactive)
- IC50 [9]: > 67.5 µM (inactive)
- CC50 [10]: 100 µM (active)
- IC50 [11]: 20.4 µM (active)
